Activity calls are given as the source filed them. How the calls were made is not given here.
Test system: CCRIS mutagenicity, Ames/micronucleus/aberration tests
Assay: CCRIS mutagenicity studies

C=CCc1ccc2c(c1)OCO2
mutagenic call (Test System: AMES SALMONELLA TYPHIMURIUM, Strain/Indicator: TA97, Metabolic Activation: HAMSTER LIVER S-9, AROCLOR 1254 (10%), Method: PREINCUBATION): inactive; negative | mutagenic call (Test System: AMES SALMONELLA TYPHIMURIUM, Strain/Indicator: TA97, Metabolic Activation: HAMSTER LIVER S-9, AROCLOR 1254 (30%), Method: PREINCUBATION): inactive; negative | mutagenic call (Test System: AMES SALMONELLA TYPHIMURIUM, Strain/Indicator: TA97, Metabolic Activation: NONE, Method: PREINCUBATION): inactive; negative | mutagenic call (Test System: AMES SALMONELLA TYPHIMURIUM, Strain/Indicator: TA97, Metabolic Activation: NONE, Method: STANDARD PLATE): inactive; negative | mutagenic call (Test System: AMES SALMONELLA TYPHIMURIUM, Strain/Indicator: TA97, Metabolic Activation: RAT LIVER S-9, AROCLOR 1254 (10%), Method: PREINCUBATION): inactive; negative | mutagenic call (Test System: AMES SALMONELLA TYPHIMURIUM, Strain/Indicator: TA97, Metabolic Activation: RAT LIVER S-9, AROCLOR 1254 (30%), Method: PREINCUBATION): inactive; negative | mutagenic call (Test System: AMES SALMONELLA TYPHIMURIUM, Strain/Indicator: TA97, Metabolic Activation: S-9, Method: STANDARD PLATE): inactive; negative | mutagenic call (Test System: AMES SALMONELLA TYPHIMURIUM, Strain/Indicator: TA98, Metabolic Activation: HAMSTER LIVER S-9, AROCLOR 1254 (10%), Method: PREINCUBATION): inactive; negative | mutagenic call (Test System: AMES SALMONELLA TYPHIMURIUM, Strain/Indicator: TA98, Metabolic Activation: HAMSTER LIVER S-9, AROCLOR 1254 (30%), Method: PREINCUBATION): inactive; negative | mutagenic call (Test System: AMES SALMONELLA TYPHIMURIUM, Strain/Indicator: TA98, Metabolic Activation: NONE, Method: PREINCUBATION): inactive; negative | mutagenic call (Test System: AMES SALMONELLA TYPHIMURIUM, Strain/Indicator: TA98, Metabolic Activation: NONE, Method: STANDARD PLATE): inactive; negative | mutagenic call (Test System: AMES SALMONELLA TYPHIMURIUM, Strain/Indicator: TA98, Metabolic Activation: RAT LIVER S-9, AROCLOR 1254 (10%), Method: PREINCUBATION): inactive; negative | mutagenic call (Test System: AMES SALMONELLA TYPHIMURIUM, Strain/Indicator: TA98, Metabolic Activation: RAT LIVER S-9, AROCLOR 1254 (30%), Method: PREINCUBATION): inactive; negative | mutagenic call (Test System: AMES SALMONELLA TYPHIMURIUM, Strain/Indicator: TA98, Metabolic Activation: RAT, LIVER, S-9, AROCLOR 1254, Method: STANDARD PLATE): inactive; negative | mutagenic call (Test System: AMES SALMONELLA TYPHIMURIUM, Strain/Indicator: TA98, Metabolic Activation: S-9, Method: STANDARD PLATE): inactive; negative | mutagenic call (Test System: AMES SALMONELLA TYPHIMURIUM, Strain/Indicator: TA100, Metabolic Activation: HAMSTER LIVER S-9, AROCLOR 1254 (10%), Method: PREINCUBATION): inactive; negative | mutagenic call (Test System: AMES SALMONELLA TYPHIMURIUM, Strain/Indicator: TA100, Metabolic Activation: HAMSTER LIVER S-9, AROCLOR 1254 (30%), Method: PREINCUBATION): inactive; negative | mutagenic call (Test System: AMES SALMONELLA TYPHIMURIUM, Strain/Indicator: TA100, Metabolic Activation: NONE, Method: PREINCUBATION): inactive; negative | mutagenic call (Test System: AMES SALMONELLA TYPHIMURIUM, Strain/Indicator: TA100, Metabolic Activation: NONE, Method: STANDARD PLATE): inactive; negative | mutagenic call (Test System: AMES SALMONELLA TYPHIMURIUM, Strain/Indicator: TA100, Metabolic Activation: RAT LIVER S-9, AROCLOR 1254 (10%), Method: PREINCUBATION): inactive; negative | mutagenic call (Test System: AMES SALMONELLA TYPHIMURIUM, Strain/Indicator: TA100, Metabolic Activation: RAT LIVER S-9, AROCLOR 1254 (30%), Method: PREINCUBATION): inactive; negative | mutagenic call (Test System: AMES SALMONELLA TYPHIMURIUM, Strain/Indicator: TA100, Metabolic Activation: RAT, LIVER, S-9, AROCLOR 1254, Method: STANDARD PLATE): inactive; negative | mutagenic call (Test System: AMES SALMONELLA TYPHIMURIUM, Strain/Indicator: TA100, Metabolic Activation: S-9, Method: STANDARD PLATE): inactive; negative | mutagenic call (Test System: AMES SALMONELLA TYPHIMURIUM, Strain/Indicator: TA102, Metabolic Activation: NONE, Method: STANDARD PLATE): inactive; negative | mutagenic call (Test System: AMES SALMONELLA TYPHIMURIUM, Strain/Indicator: TA102, Metabolic Activation: RAT LIVER S-9, PHENOBARBITAL AND 5,6-BENZOFLAVONE, Method: STANDARD PLATE): inactive; negative | mutagenic call (Test System: AMES SALMONELLA TYPHIMURIUM, Strain/Indicator: TA102, Metabolic Activation: S-9, Method: STANDARD PLATE): inactive; negative | mutagenic call (Test System: AMES SALMONELLA TYPHIMURIUM, Strain/Indicator: TA1535, Metabolic Activation: HAMSTER LIVER S-9, AROCLOR 1254 (10%), Method: PREINCUBATION): inactive; negative | mutagenic call (Test System: AMES SALMONELLA TYPHIMURIUM, Strain/Indicator: TA1535, Metabolic Activation: HAMSTER LIVER S-9, AROCLOR 1254 (30%), Method: PREINCUBATION): inactive; negative | mutagenic call (Test System: AMES SALMONELLA TYPHIMURIUM, Strain/Indicator: TA1535, Metabolic Activation: NONE, Method: PREINCUBATION): inactive; negative | mutagenic call (Test System: AMES SALMONELLA TYPHIMURIUM, Strain/Indicator: TA1535, Metabolic Activation: NONE, Method: STANDARD PLATE): inactive; negative | mutagenic call (Test System: AMES SALMONELLA TYPHIMURIUM, Strain/Indicator: TA1535, Metabolic Activation: PAPS, Method: STANDARD PLATE): inactive; negative | mutagenic call (Test System: AMES SALMONELLA TYPHIMURIUM, Strain/Indicator: TA1535, Metabolic Activation: RAT LIVER S-9, AROCLOR 1254 (10%), Method: PREINCUBATION): inactive; negative | mutagenic call (Test System: AMES SALMONELLA TYPHIMURIUM, Strain/Indicator: TA1535, Metabolic Activation: RAT LIVER S-9, AROCLOR 1254 (30%), Method: PREINCUBATION): inactive; negative | mutagenic call (Test System: AMES SALMONELLA TYPHIMURIUM, Strain/Indicator: TA1535, Metabolic Activation: RAT, LIVER, S-9, AROCLOR 1254, PAPS, Method: STANDARD PLATE): active; positive | mutagenic call (Test System: AMES SALMONELLA TYPHIMURIUM, Strain/Indicator: TA1535, Metabolic Activation: RAT, LIVER, S-9, AROCLOR 1254, Method: STANDARD PLATE): inactive; negative | mutagenic call (Test System: AMES SALMONELLA TYPHIMURIUM, Strain/Indicator: TA1537, Metabolic Activation: NONE, Method: STANDARD PLATE): inactive; negative | mutagenic call (Test System: AMES SALMONELLA TYPHIMURIUM, Strain/Indicator: TA1537, Metabolic Activation: RAT, LIVER, S-9, AROCLOR 1254, Method: STANDARD PLATE): inactive; negative | mutagenic call (Test System: AMES SALMONELLA TYPHIMURIUM, Strain/Indicator: TA1538, Metabolic Activation: NONE, Method: STANDARD PLATE): inactive; negative | mutagenic call (Test System: AMES SALMONELLA TYPHIMURIUM, Strain/Indicator: TA1538, Metabolic Activation: RAT, LIVER, S-9, AROCLOR 1254, Method: STANDARD PLATE): inactive; negative | mutagenic call (Test System: AMES SALMONELLA TYPHIMURIUM, Strain/Indicator: TA2638, Metabolic Activation: RAT LIVER S-9, PHENOBARBITAL AND 5,6-BENZOFLAVONE, Method: STANDARD PLATE): inactive; negative | mutagenic call (Test System: CHINESE HAMSTER OVARY, Strain/Indicator: CHO/6-THIOGUANINE, Metabolic Activation: HAMSTER EMBRYO CELL-MEDIATED): inactive; negative | mutagenic call (Test System: CHINESE HAMSTER OVARY, Strain/Indicator: CHO/6-THIOGUANINE, Metabolic Activation: NONE): inactive; negative | mutagenic call (Test System: CHINESE HAMSTER OVARY, Strain/Indicator: CHO/OUABAIN, Metabolic Activation: HAMSTER EMBRYO CELL-MEDIATED): inactive; negative | mutagenic call (Test System: CHINESE HAMSTER OVARY, Strain/Indicator: CHO/OUABAIN, Metabolic Activation: NONE): inactive; negative | mutagenic call (Test System: CHINESE HAMSTER V-79, Strain/Indicator: V-79 (HGPRT)/6-THIOGUANINE, Metabolic Activation: NONE): inactive; negative | mutagenic call (Test System: CHINESE HAMSTER V-79, Strain/Indicator: V-79 (HGPRT)/6-THIOGUANINE, Metabolic Activation: RAT, LIVER, S-9, PHENOBARBITAL AND BETA-NAPHTHOFLAVONE): inactive; negative | mutagenic call (Test System: CHINESE HAMSTER V-79, Strain/Indicator: V-79/6-THIOGUANINE, Metabolic Activation: NONE, Method: REPLATING): active; positive | mutagenic call (Test System: CHINESE HAMSTER V-79, Strain/Indicator: V-79/OUABAIN, Metabolic Activation: HAMSTER EMBRYO CELL-MEDIATED): inactive; negative | mutagenic call (Test System: CHINESE HAMSTER V-79, Strain/Indicator: V-79/OUABAIN, Metabolic Activation: NONE): inactive; negative | mutagenic call (Test System: CHINESE HAMSTER V-79, Strain/Indicator: V-79/OUABAIN, Metabolic Activation: RAT, LIVER, S-15, PHENOBARBITAL AND 5,6-BENZOFLAVONE): inactive; negative | mutagenic call (Test System: E. COLI, Strain/Indicator: WP2 (PKM101), Metabolic Activation: RAT LIVER S-9, PHENOBARBITAL AND 5,6-BENZOFLAVONE, Method: STANDARD PLATE): inactive; negative | mutagenic call (Test System: E. COLI, Strain/Indicator: WP2 UVRA (PKM101), Metabolic Activation: RAT LIVER S-9, PHENOBARBITAL AND 5,6-BENZOFLAVONE, Method: STANDARD PLATE): inactive; negative | mutagenic call (Test System: MOUSE LYMPHOMA, Strain/Indicator: L5178Y (TK+/+)/OUABAIN, Metabolic Activation: NONE, Method: SUSPENSION/PLATE): active; positive | mutagenic call (Test System: MOUSE LYMPHOMA, Strain/Indicator: L5178Y (TK+/+)/OUABAIN, Metabolic Activation: RAT LIVER S-9, AROCLOR 1254, Method: SUSPENSION/PLATE): active; positive | mutagenic call (Test System: MOUSE LYMPHOMA, Strain/Indicator: L5178Y (TK+/-)/TRIFLUROTHYMIDINE, Metabolic Activation: NONE, Method: SUSPENSION/PLATE): active; positive | mutagenic call (Test System: MOUSE LYMPHOMA, Strain/Indicator: L5178Y (TK+/-)/TRIFLUROTHYMIDINE, Metabolic Activation: RAT LIVER S-9, AROCLOR 1254, Method: SUSPENSION/PLATE): inactive; negative | mutagenic call (Test System: MOUSE LYMPHOMA, Strain/Indicator: L5178Y (TK+/TK-), Metabolic Activation: NONE, Method: SUSPENSION/PLATE): inactive; negative | mutagenic call (Test System: MOUSE LYMPHOMA, Strain/Indicator: L5178Y (TK+/TK-), Metabolic Activation: RAT, LIVER, S-9, Method: SUSPENSION/PLATE): active; positive | mutagenic call (Test System: UDS RAT HEPATOCYTES, Strain/Indicator: THY INCORP, Metabolic Activation: NONE, Method: LIQUID SCINTILLATION COUNTING): active; positive
